For experiment [1], the target named is T1, Full length human recombinant HDAC11 (Homo sapiens, UniProt Q96DB2).
T1 construct: Full length human recombinant HDAC6 and HDAC11 proteins were expressed in baculoviral system
T1 sequence (Q96DB2 1-347): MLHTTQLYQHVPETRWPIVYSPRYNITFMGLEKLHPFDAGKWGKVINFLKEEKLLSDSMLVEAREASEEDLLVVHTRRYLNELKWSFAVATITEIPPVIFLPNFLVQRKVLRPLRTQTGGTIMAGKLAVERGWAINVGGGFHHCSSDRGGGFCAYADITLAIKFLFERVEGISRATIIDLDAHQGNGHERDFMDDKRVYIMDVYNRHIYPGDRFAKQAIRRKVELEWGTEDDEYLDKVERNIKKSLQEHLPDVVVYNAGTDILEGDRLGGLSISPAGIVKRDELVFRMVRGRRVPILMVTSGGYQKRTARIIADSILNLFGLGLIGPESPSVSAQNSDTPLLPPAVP
Description: In vitro histone deacetylase assay, enzymatic HDAC11 (electrophoretic mobility shift assay). It is filed as biochemical. As to conditions: 10 nM HDAC11; 2 μM peptide substrate FAM-RHKK(tri-fluor-Ac)—NH2; 25° C.; 12 concentrations; read-out: HDAC11 Activity Range (IC50). The gist of the method: (§1)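 Baculovirus-expressed full-length enzymes (HDAC6 1 nM, FAM-RHKK(Ac)-NH2; HDAC11 10 nM, FAM-RHKK(tri-fluor-Ac)-NH2), 2 μM substrate, HEPES pH 7.5, 25°C, 12-point 3× dilutions. Product/substrate separated by microfluidic mobility shift after SDS quench; IC50 from 4-parameter fit, reported as +/++/+++ bins.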
For orientation: A gel shift assay detects complexes by their altered migration in electrophoresis.

The target of experiment [2] is T2, Full length human recombinant HDAC6 (Homo sapiens, UniProt Q9UBN7).
T2 construct: Full length human recombinant HDAC6 and HDAC11 proteins were expressed in baculoviral system
T2 sequence (Q9UBN7 1-1215): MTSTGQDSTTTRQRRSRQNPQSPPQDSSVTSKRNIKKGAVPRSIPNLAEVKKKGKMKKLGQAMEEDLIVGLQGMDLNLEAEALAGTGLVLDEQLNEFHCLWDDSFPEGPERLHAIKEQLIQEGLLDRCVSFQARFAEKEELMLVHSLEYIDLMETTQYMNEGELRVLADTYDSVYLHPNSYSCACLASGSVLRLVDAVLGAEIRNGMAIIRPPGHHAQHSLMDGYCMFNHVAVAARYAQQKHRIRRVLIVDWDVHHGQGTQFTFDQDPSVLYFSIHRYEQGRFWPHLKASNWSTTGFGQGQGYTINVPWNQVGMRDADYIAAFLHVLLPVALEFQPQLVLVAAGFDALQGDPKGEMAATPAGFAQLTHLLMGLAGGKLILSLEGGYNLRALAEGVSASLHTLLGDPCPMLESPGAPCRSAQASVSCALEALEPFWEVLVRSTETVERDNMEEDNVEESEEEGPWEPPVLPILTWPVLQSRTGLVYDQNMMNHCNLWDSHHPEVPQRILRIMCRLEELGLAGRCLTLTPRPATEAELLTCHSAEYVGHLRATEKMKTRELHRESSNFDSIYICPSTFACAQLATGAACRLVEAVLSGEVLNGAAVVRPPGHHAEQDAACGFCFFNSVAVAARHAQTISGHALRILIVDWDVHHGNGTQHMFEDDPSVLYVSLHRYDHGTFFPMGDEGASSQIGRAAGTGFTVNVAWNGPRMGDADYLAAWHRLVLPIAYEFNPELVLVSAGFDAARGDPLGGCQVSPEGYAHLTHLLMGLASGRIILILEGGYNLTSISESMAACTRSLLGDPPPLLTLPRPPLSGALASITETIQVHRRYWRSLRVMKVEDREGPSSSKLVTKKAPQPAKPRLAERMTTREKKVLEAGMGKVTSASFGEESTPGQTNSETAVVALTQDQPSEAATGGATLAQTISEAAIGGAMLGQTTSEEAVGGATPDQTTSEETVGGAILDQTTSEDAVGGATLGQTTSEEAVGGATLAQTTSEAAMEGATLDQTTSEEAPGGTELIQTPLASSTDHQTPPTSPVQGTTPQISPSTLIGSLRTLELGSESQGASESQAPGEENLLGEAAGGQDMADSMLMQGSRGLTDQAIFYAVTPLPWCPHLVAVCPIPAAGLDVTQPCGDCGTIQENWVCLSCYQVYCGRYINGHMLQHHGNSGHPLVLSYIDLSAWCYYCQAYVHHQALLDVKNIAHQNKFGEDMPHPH
Description: In vitro histone deacetylase assay, enzymatic HDAC6 (electrophoretic mobility shift assay). It is filed as biochemical. As to conditions: 1 nM HDAC6; 2 μM peptide substrate FAM-RHKK(Ac)—NH2; 25° C.; 12 concentrations; read-out: HDAC6 Activity Range (IC50). In short, it runs like this:
as §1

This note sets out measurements from patent US9637453B2, “3-spirocyclic-6-hydroxamic acid tetralins as HDAC inhibitors” (Forma Therapeutics, Inc., priority 2015, dated 2017).

SMILES strings stand for the structures. Some results are limits rather than exact numbers.

One may read the IC50 as the point on the concentration scale where inhibition reaches its midpoint. Consider `Cc1ccccc1CN1CC[C@]2(CCc3ccc(C(=O)NO)cc3C2)C1=O` [Compound I-87, (R)—N-hydroxy-1′-(2-methylbenzyl)-2′-oxo-3,4-dihydro-1H-spiro[naphthalene-2,3′-pyrrolidine]-7-carboxamide], for which the IC50 in experiment [1] and in experiment [2] was ≤ 100 nM each time.
In the case of `O=C(NO)c1ccc2c(c1)C[C@]1(CC2)CCN(Cc2ccc(C(F)(F)F)cc2)C1=O` [Compound I-127, (R)—N-hydroxy-2′-oxo-1′-(4-(trifluoromethyl)benzyl)-3,4-dihydro-1H-spiro[naphthalene-2,3′-pyrrolidine]-7-carboxamide], the IC50 was 100 to 500 nM in experiment [1] and ≤ 100 nM in experiment [2].
`O=C(NO)c1ccc2c(c1)C[C@]1(CC2)CC(=O)N(Cc2ccc(F)cc2)C1` [Compound I-128, (R)-1′-(4-fluorobenzyl)-N-hydroxy-5′-oxo-3,4-dihydro-1H-spiro[naphthalene-2,3′-pyrrolidine]-7-carboxamide]: the IC50 in experiment [1] is > 500 nM; in experiment [2], ≤ 100 nM.
The like results for `O=C(NO)c1ccc2c(c1)CC1(CC2)CCN(S(=O)(=O)C2CCCCC2)C1` (centres unmarked) [Compound I-7, 1′-(cyclohexylsulfonyl)-N-hydroxy-3,4-dihydro-1H-spiro[naphthalene-2,3′-pyrrolidine]-7-carboxamide] were, in that order, > 500 nM and ≤ 100 nM.
For `O=C(NO)c1ccc2c(c1)C[C@@]1(CC2)CCN(Cc2ccccc2OC(F)F)C1=O` [Compound I-78, (S)-1′-(2-(difluoromethoxy)benzyl)-N-hydroxy-2′-oxo-3,4-dihydro-1H-spiro[naphthalene-2,3′-pyrrolidine]-7-carboxamide], in that order: > 500 nM and ≤ 100 nM.
For `O=C(NO)c1ccc2c(c1)C[C@@]1(CC2)CCN(c2cnc3ccccc3c2)C1=O` [Compound I-118, (S)—N-hydroxy-2′-oxo-1′-(quinolin-3-yl)-3,4-dihydro-1H-spiro[naphthalene-2,3′-pyrrolidine]-7-carboxamide], in that order: > 500 nM and ≤ 100 nM.
Turning to `O=C(NO)c1ccc2c(c1)C[C@@]1(CC2)CC(=O)N(Cc2ccc(F)cc2)C1` [Compound I-129, (S)-1′-(4-fluorobenzyl)-N-hydroxy-5′-oxo-3,4-dihydro-1H-spiro[naphthalene-2,3′-pyrrolidine]-7-carboxamide], the IC50 in experiment [1] was > 500 nM; in experiment [2], ≤ 100 nM.
The like results for `CC(C)CN1C[C@@]2(CCc3ccc(C(=O)NO)cc3C2)CC1=O` [Compound I-137, (R)—N-hydroxy-1′-isobutyl-5′-oxo-3,4-dihydro-1H-spiro[naphthalene-2,3′-pyrrolidine]-7-carboxamide] were, in that order, > 500 nM and ≤ 100 nM.
The like results for `O=C(NO)c1ccc2c(c1)C[C@]1(CCNC1=O)CC2` [Compound I-47, (S)—N-hydroxy-2′-oxo-3,4-dihydro-1H-spiro[naphthalene-2,3′-pyrrolidine]-7-carboxamide] were, in that order, > 500 nM and ≤ 100 nM.
The like results for `COCCCN1C[C@]2(CCc3ccc(C(=O)NO)cc3C2)CC1=O` [Compound I-136, (S)—N-hydroxy-1′-(3-methoxypropyl)-5′-oxo-3,4-dihydro-1H-spiro[naphthalene-2,3′-pyrrolidine]-7-carboxamide] were, in that order, > 500 nM and ≤ 100 nM.
On to `O=C(NO)c1ccc2c(c1)CC1(CCNC1)CC2` (centres unmarked) [Compound I-8, N-hydroxy-3,4-dihydro-1H-spiro[naphthalene-2,3′-pyrrolidine]-7-carboxamide], for which the IC50 in experiment [1] was > 500 nM; in experiment [2], 100 to 500 nM.
For the molecule `O=CN1CCC2(CCc3ccc(C(=O)NO)cc3C2)C1` (centres unmarked) [Compound I-10, 1′-formyl-N-hydroxy-3,4-dihydro-1H-spiro[naphthalene-2,3′-pyrrolidine]-7-carboxamide], the half-maximal inhibitory concentration (IC50) in experiment [1] is > 500 nM; in experiment [2], ≤ 100 nM.
For `O=C(NO)c1ccc2c(c1)C[C@]1(CC2)CCN(Cc2cccnc2)C1=O` [Compound I-97, (R)—N-hydroxy-2′-oxo-1′-(pyridin-3-ylmethyl)-3,4-dihydro-1H-spiro[naphthalene-2,3′-pyrrolidine]-7-carboxamide], in that order: > 500 nM and ≤ 100 nM.
For `O=C(NO)c1ccc2c(c1)C[C@@]1(CC2)CCN(Cc2ccccc2OC(F)(F)F)C1=O` [Compound I-62, (S)—N-hydroxy-2′-oxo-1′-(2-(trifluoromethoxy)benzyl)-3,4-dihydro-1H-spiro[naphthalene-2,3′-pyrrolidine]-7-carboxamide], in that order: > 500 nM and 100 to 500 nM.
Take `COCCn1c(N2CC[C@]3(CCc4ccc(C(=O)NO)cc4C3)C2=O)nc2ccccc21` [Compound I-34, (R)—N-hydroxy-1′-(1-(2-methoxyethyl)-1H-benzo[d]imidazol-2-yl)-2′-oxo-3,4-dihydro-1H-spiro[naphthalene-2,3′-pyrrolidine]-7-carboxamide]: the IC50 in experiment [1] and in experiment [2] was ≤ 100 nM throughout.
For `O=C(NO)c1ccc2c(c1)C[C@]1(CC2)CCN(Cc2ccccc2Cl)C1=O` [Compound I-89, (R)-1′-(2-chlorobenzyl)-N-hydroxy-2′-oxo-3,4-dihydro-1H-spiro[naphthalene-2,3′-pyrrolidine]-7-carboxamide], the IC50 in experiment [1] and in experiment [2] was ≤ 100 nM throughout.
Turning to `O=C(NO)c1ccc2c(c1)CC1(CC2)CCN(C(=O)Nc2ccccc2)C1` (centres unmarked) [Compound I-6, N7-hydroxy-N1′-phenyl-3,4-dihydro-1H-spiro[naphthalene-2,3′-pyrrolidine]-1′,7-dicarboxamide], the values for the IC50 in experiment [1] and in experiment [2] were 100 to 500 nM and ≤ 100 nM, respectively.
Take `O=C(NO)c1ccc2c(c1)CC1(CC2)CCN(c2ccccc2)C1=O` (centres unmarked) [Compound I-26, N-hydroxy-2′-oxo-1′-phenyl-3,4-dihydro-1H-spiro[naphthalene-2,3′-pyrrolidine]-7-carboxamide]: the values for the IC50 in experiment [1] and in experiment [2] were 100 to 500 nM and ≤ 100 nM, respectively.
The like results for `O=C(NO)c1ccc2c(c1)C[C@]1(CC2)CCN(c2ccccc2)C1` [Compound I-17, (R)—N-hydroxy-1′-phenyl-3,4-dihydro-1H-spiro[naphthalene-2,3′-pyrrolidine]-7-carboxamide] were, in that order, > 500 nM and ≤ 100 nM.
The like results for `CC(C)CCN1CC[C@]2(CCc3ccc(C(=O)NO)cc3C2)C1=O` [Compound I-82, (R)—N-hydroxy-1′-isopentyl-2′-oxo-3,4-dihydro-1H-spiro[naphthalene-2,3′-pyrrolidine]-7-carboxamide] were, in that order, 100 to 500 nM and ≤ 100 nM.
The like results for `COc1ccc(C(=O)N2CCC3(CCc4ccc(C(=O)NO)cc4C3)C2)cc1` (centres unmarked) [Compound I-1, N-hydroxy-1′-(4-methoxybenzoyl)-3,4-dihydro-1H-spiro[naphthalene-2,3′-pyrrolidine]-7-carboxamide] were, in that order, > 500 nM and ≤ 100 nM.
For `O=C(NO)c1ccc2c(c1)C[C@@]1(CC2)CCN(Cc2cnc(O)s2)C1=O` [Compound I-50, (S)—N-hydroxy-1′-((2-hydroxythiazol-5-yl)methyl)-2′-oxo-3,4-dihydro-1H-spiro[naphthalene-2,3′-pyrrolidine]-7-carboxamide], the IC50 in experiment [1] is > 500 nM; in experiment [2], ≤ 100 nM.
